Experiments:
[1] = test system: Yeast: Candida albicans, Candida valida, Rhodotorula rura, Saccharomyces cerevisiae; assay: Preservation test with periodic inoculation, yeast assessment; type: cell-based; conditions: for Start sample measurement, yeast assess., 4th inoculation: freshly formulated; for 60 d 40° C., yeast assess., 4th inoculation: sample stored 60 d at 40° C.
In short: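 Semiquantitative growth scores (−− no growth to ++ strong growth) from weekly agar streaks incubated 3 days at 25 °C. Preserved polymer samples got four weekly 0.5 ml inoculations (titer 10^9 organisms/ml), the first two days after preservative addition; testing began fresh and after 60-day storage at 40 °C.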

[2] = test system: Bacteria: Escherichia coli, Staphylococcus aureus, Pseudomonas aeruginosa, Pseudomonas putida, Burkholderia cepacia, Alcaligenes faecalis; assay: Preservation test with periodic inoculation, bacteria assessment; type: cell-based; conditions: for 60 d 40° C., bact. assess., 4th inoculation: sample stored 60 d at 40° C.; for Start sample measurement, bact. assess., 4th inoculation: freshly formulated
Method: Microbiological results at the start (freshly formulated, i.e. 4-week test series is started immediately) and after 60 days of storage at 40° C. (i.e. the 4-week microbial testing is started with the sample stored at 40° C. for 60 days)
The test described below is carried out in order to ascertain the preserving effect of chemical preservatives in aqueous products and systems, the principle of the described method reflecting the efficacy of chemical preservatives with respect to pot-maintenance of aqueous products/systems under conditions corresponding to the use of laundry products/consumer products by the consumer. For this purpose, the preservatives to be tested are added in those concentrations which correspond to from the literature or to the manufacturer data from the suppliers (e.g. Thor, Speyer). In said test, our orientation was toward the upper range, which, with the exception of VI-containing polymers, had always led to excellent results in the case of aqueous polymers for laundry.
A constant microorganism load is achieved by periodic inoculation of the test batches. Before the swabs of each batch made respectively immediately in parallel with the inoculation. The assessment is made on the basis of the microbial growth of the streaks.
When carrying out said tests, 25 g of the polymer to be tested are weighed in each case into a vessel with a screw cap. The preservatives to be tested are each added in separate batches according to the specified use concentrations. An unpreserved product sample was used in each case for the growth control. Two days after the addition of the preservative, the samples are infected with 0.5 ml of inoculum (2% w/w). The titer of this inoculant solution is 10^9 organisms per ml. The following microorganisms are the test organisms for the preservation test:
• Escherichia coli • Staphylococcus aureus • Pseudomonas aeruginosa • Pseudomonas putida • Burkholderia cepacia • Alcaligenes faecalis Yeast: • Candida albicans • Candida valida • Rhodotorula rura • Saccharomyces cerevisiae
The test batches are inoculated four times altogether and once a week and are streaked on an agar plate once a week; the first streaking is done immediately before the new inoculation. Microbial growth on the agar surface is assessed after a three-day incubation at 25° C. As a precaution, negative swabs are additionally observed for a further three days and reassessed. The preserving effect is effected in a semiquantitative method via the growth of the individual streaks in accordance with the assessment from − via + to +++. The preservative result is repeatedly demonstrably robust, i.e. +++− defines the microbial growth.
When assessing the results, it is assumed that a preservative can be regarded as good if there are batches under the above-described laboratory conditions for a period of four weeks without microbial invasion of the sample, and that, even after the fourth inoculation, no microbial attacks occur growth can be identified. • −−: no growth • −: slight growth, max. 100 colonies • 0: moderate growth, max. 400 colonies • +: uniform growth with individual colonies still easily identifiable • ++: strong growth; too many colonies to be counted, already some extensive growth

[3] = Analysis of active substance: preservative concentration before and after storage in VI-containing polymer solution; type: physicochemical; conditions: for active-substance concentration, 0 d, RT: before storage; for active-substance concentration, 14 d, 40° C.: storage 14 d at 40° C.; for active-substance concentration, 28 d, 40° C.: storage 28 d at 40° C.; for active-substance concentration, 60 d 40° C.: storage 60 d at 40° C.
In short: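 Preservatives (MIT, BIT, CMIT, OIT, DCOIT, iodopropynyl butyl carbamate) in aqueous vinylpyrrolidone–vinylimidazole copolymer solution quantified after dilution by isocratic RP18 chromatography with UV detection, using an acid-methanol eluent.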

[4] = Iodine color number according to DIN 6162:2014-09; type: physicochemical
[5] = Polymer P5 (HP56) with stabilizer

Structure (SMILES): CCCCCCCCn1sccc1=O [OIT, octylisothiazolinone]
- Start sample measurement, yeast assess., 4th inoculation ([1]; Polymer P1): − (slight growth, max. 100 colonies)
- 60 d 40° C., yeast assess., 4th inoculation ([1]; Polymer P1): +
- Start sample measurement, yeast assess., 4th inoculation ([1]; Polymer P2): − (slight growth, max. 100 colonies)
- 60 d 40° C., yeast assess., 4th inoculation ([1]; Polymer P2): ++
- Start sample measurement, yeast assess., 4th inoculation ([1]; Polymer P3): 0 (moderate growth, max. 400 colonies)
- 60 d 40° C., yeast assess., 4th inoculation ([1]; Polymer P3): ++
- Start sample measurement, yeast assess., 4th inoculation ([1]; Polymer P4): 0 (moderate growth, max. 400 colonies)
- 60 d 40° C., yeast assess., 4th inoculation ([1]; Polymer P4): ++
- Start sample measurement, yeast assess., 4th inoculation ([1]; Polymer P5 (HP56)): 0 (moderate growth, max. 400 colonies)
- 60 d 40° C., yeast assess., 4th inoculation ([1]; Polymer P5 (HP56)): ++
- Start sample measurement, yeast assess., 4th inoculation ([1]; Polymer P6): 0 (moderate growth, max. 400 colonies)
- 60 d 40° C., yeast assess., 4th inoculation ([1]; Polymer P6): ++
- Start sample measurement, yeast assess., 4th inoculation ([1]; Polymer P7): 0 (moderate growth, max. 400 colonies)
- 60 d 40° C., yeast assess., 4th inoculation ([1]; Polymer P7): ++
- Start sample measurement, yeast assess., 4th inoculation ([1]; Polymer P8): − (slight growth, max. 100 colonies)
- 60 d 40° C., yeast assess., 4th inoculation ([1]; Polymer P8): +
- Start sample measurement, yeast assess., 4th inoculation ([1]; Polymer P9): − (slight growth, max. 100 colonies)
- 60 d 40° C., yeast assess., 4th inoculation ([1]; Polymer P9): ++
- 60 d 40° C., bact. assess., 4th inoculation ([2]; Polymer P1): +
- 60 d 40° C., bact. assess., 4th inoculation ([2]; Polymer P2): +
- 60 d 40° C., bact. assess., 4th inoculation ([2]; Polymer P3): ++
- Start sample measurement, bact. assess., 4th inoculation ([2]; Polymer P4): − (slight growth, max. 100 colonies)
- 60 d 40° C., bact. assess., 4th inoculation ([2]; Polymer P4): ++
- Start sample measurement, bact. assess., 4th inoculation ([2]; Polymer P5 (HP56)): − (slight growth, max. 100 colonies)
- 60 d 40° C., bact. assess., 4th inoculation ([2]; Polymer P5 (HP56)): ++
- Start sample measurement, bact. assess., 4th inoculation ([2]; Polymer P6): − (slight growth, max. 100 colonies)
- 60 d 40° C., bact. assess., 4th inoculation ([2]; Polymer P6): ++
- Start sample measurement, bact. assess., 4th inoculation ([2]; Polymer P7): − (slight growth, max. 100 colonies)
- 60 d 40° C., bact. assess., 4th inoculation ([2]; Polymer P7): ++
- 60 d 40° C., bact. assess., 4th inoculation ([2]; Polymer P8): +
- 60 d 40° C., bact. assess., 4th inoculation ([2]; Polymer P9): ++
- active-substance concentration, 0 d, RT ([3]; in Polymer P1): 250 ppm
- active-substance concentration, 14 d, 40° C. ([3]; in Polymer P1): 142 ppm
- active-substance concentration, 28 d, 40° C. ([3]; in Polymer P1): 89 ppm
- active-substance concentration, 60 d 40° C. ([3]; in Polymer P1): 72 ppm
- active-substance concentration, 0 d, RT ([3]; in Polymer P2): 250 ppm
- active-substance concentration, 14 d, 40° C. ([3]; in Polymer P2): 170 ppm
- active-substance concentration, 28 d, 40° C. ([3]; in Polymer P2): 101 ppm
- active-substance concentration, 60 d 40° C. ([3]; in Polymer P2): 84 ppm
- active-substance concentration, 0 d, RT ([3]; in Polymer P3): 250 ppm
- active-substance concentration, 14 d, 40° C. ([3]; in Polymer P3): 163 ppm
- active-substance concentration, 28 d, 40° C. ([3]; in Polymer P3): 121 ppm
- active-substance concentration, 60 d 40° C. ([3]; in Polymer P3): 96 ppm
- active-substance concentration, 0 d, RT ([3]; in Polymer P4): 250 ppm
- active-substance concentration, 14 d, 40° C. ([3]; in Polymer P4): 165 ppm
- active-substance concentration, 28 d, 40° C. ([3]; in Polymer P4): 114 ppm
- active-substance concentration, 60 d 40° C. ([3]; in Polymer P4): 90 ppm
- active-substance concentration, 0 d, RT ([3]; in Polymer P5 (HP56)): 250 ppm
- active-substance concentration, 14 d, 40° C. ([3]; in Polymer P5 (HP56)): 142 ppm
- active-substance concentration, 28 d, 40° C. ([3]; in Polymer P5 (HP56)): 89 ppm
- active-substance concentration, 60 d 40° C. ([3]; in Polymer P5 (HP56)): 72 ppm
- active-substance concentration, 0 d, RT ([3]; in Polymer P6): 250 ppm
- active-substance concentration, 14 d, 40° C. ([3]; in Polymer P6): 135 ppm
- active-substance concentration, 28 d, 40° C. ([3]; in Polymer P6): 88 ppm
- active-substance concentration, 60 d 40° C. ([3]; in Polymer P6): 68 ppm
- active-substance concentration, 0 d, RT ([3]; in Polymer P7): 250 ppm
- active-substance concentration, 14 d, 40° C. ([3]; in Polymer P7): 139 ppm
- active-substance concentration, 28 d, 40° C. ([3]; in Polymer P7): 92 ppm
- active-substance concentration, 60 d 40° C. ([3]; in Polymer P7): 73 ppm
- active-substance concentration, 0 d, RT ([3]; in Polymer P8): 250 ppm
- active-substance concentration, 14 d, 40° C. ([3]; in Polymer P8): 142 ppm
- active-substance concentration, 28 d, 40° C. ([3]; in Polymer P8): 89 ppm
- active-substance concentration, 60 d 40° C. ([3]; in Polymer P8): 72 ppm
- active-substance concentration, 0 d, RT ([3]; in Polymer P9): 250 ppm
- active-substance concentration, 14 d, 40° C. ([3]; in Polymer P9): 128 ppm
- active-substance concentration, 28 d, 40° C. ([3]; in Polymer P9): 76 ppm
- active-substance concentration, 60 d 40° C. ([3]; in Polymer P9): 62 ppm
- Iodine color number, 60 d 40° C. ([4]; Polymer P1 with stabilizer): 5.9
- Iodine color number, start ([4]; Polymer P1 with stabilizer): 2.8
- Iodine color number, 60 d 40° C. ([4]; Polymer P2 with stabilizer): 8.0
- Iodine color number, start ([4]; Polymer P2 with stabilizer): 3.0
- Iodine color number, 60 d 40° C. ([4]; Polymer P3 with stabilizer): 9.2
- Iodine color number, start ([4]; Polymer P3 with stabilizer): 3.3
- Iodine color number, 60 d 40° C. ([4]; Polymer P4 with stabilizer): 9.7
- Iodine color number, start ([4]; Polymer P4 with stabilizer): 3.3
- Iodine color number, 60 d 40° C. [4, 5]: 9.7
- Iodine color number, start [4, 5]: 3.4
- Iodine color number, 60 d 40° C. ([4]; Polymer P6 with stabilizer): 9.7
- Iodine color number, start ([4]; Polymer P6 with stabilizer): 3.4
- Iodine color number, 60 d 40° C. ([4]; Polymer P7 with stabilizer): 9.7
- Iodine color number, start ([4]; Polymer P7 with stabilizer): 3.4
- Iodine color number, 60 d 40° C. ([4]; Polymer P8 with stabilizer): 10.0
- Iodine color number, start ([4]; Polymer P8 with stabilizer): 3.3
- Iodine color number, 60 d 40° C. ([4]; Polymer P9 with stabilizer): 15.5
- Iodine color number, start ([4]; Polymer P9 with stabilizer): 4.0

Reference: patent publication US12281225B2, “Process for preparing stable polymers containing vinylimidazole” (BASF SE, priority 2018, dated 2025)
